Reference: patent US9200001B2, “Triazolyl PDE10 inhibitors” (Merck Sharp & Dohme Corp., priority 2011, dated 2015)

Biological target: human PDE10A2 (Homo sapiens (Human), UniProt Q9Y233)
Assay: PDE10 fluorescence polarization (IMAP FP) inhibition assay
Format: biochemical
Conditions: FAM-labeled cAMP 50 nM, room temperature, read-out: PDE10a Ki
Description: The activity of the compounds in accordance with the present invention as PDE10 inhibitors may be readily determined without undue experimentation using a fluorescence polarization (FP) methodology that is well known in the art (Huang, W., et al., J. Biomol Screen, 2002, 7: 215).
In a typical experiment the PDE10 inhibitory activity of the compounds of the present invention was determined in accordance with the following experimental method. PDE10A2 was amplified from human fetal brain cDNA (Clontech, Mountain View, Calif.) using a forward primer corresponding to nucleotides 56-77 of human PDE10A2 (Accession No. AF127480, Genbank Identifier 4894716), containing a Kozak consensus sequence, and a reverse primer corresponding to nucleotides 2406-2413 of human PDE10A2 (Accession No. AF127480, Genbank Identifier 4894716). Amplification with Easy-A polymerase (Stratagene, La Jolla, Calif.) was 95° C. for 2 minutes followed by thirty three cycles of 95° C. for 40 seconds, 55° C. for 30 seconds, and 72° C. for 2 minutes 48 seconds. Final extension was 72° C. for 7 minutes. The PCR product was TA cloned into pcDNA3.2-TOPO (Invitrogen, Carlsbad, Calif.) according to standard protocol. AD293 cells with 70-80% confluency were transiently transfected with human PDE10A2/pcDNA3.2-TOPO using Lipofectamine 2000 according to manufacturer specifications (Invitrogen, Carlsbad, Calif.). Cells were harvested 48 hours post-transfection and lysed by sonication (setting 3, 10×5 sec pulses) in a buffer containing 20 mM HEPES, 1 mM EDTA and protease inhibitor cocktail (Roche). Lysate was collected by centrifugation at 75,000×g for 20 minutes. Supernatant containing the cytoplasmic fraction was used for evaluation of PDE10A2 activity. The fluorescence polarization assay for cyclic nucleotide phosphodiesterases was performed using an IMAP® FP kit supplied by Molecular Devices, Sunnyvale, Calif. (product # R8139). IMAP® technology has been applied previously to phosphodiesterase assays (Huang, W., et al., J. Biomol Screen, 2002, 7: 215). Assays were performed at room temperature in 384-well microtiter plates with an incubation volume of 20.2 μL. Solutions of test compounds were prepared in DMSO and serially diluted with DMSO to yield 8 μL of each of 10 solutions differing by 3-fold in concentration, at 32 serial dilutions per plate. 100% inhibition is determined using a known PDE10 inhibitor, which can be any compound that is present at 5,000 times its Ki value in the assay described as follows, such as papaverine (see Siuciak, et al. Neuropharmacology (2006) 51:386-396; Becker, et al. Behav Brain Res (2008) 186(2):155-60; Threlfell, et al., J Pharmacol Exp Ther (2009) 328(3):785-795), 2-{4-[pyridin-4-yl-1-(2,2,2-trifluoroethyl)-1H-pyrazol-3-yl]phenoxymethyl}quinoline succinic acid or 2-[4-(1-methyl-4-pyridin-4-yl-1H-pyrazol-3-yl)-phenoxymethyl]quinoline succinic acid (see Schmidt, et al. J Pharmacol Exp Ther (2008) 325:681-690; Threlfall, et al., J Pharmacol Exp Ther (2009) 328(3): 785-795). 0% of inhibition is determined by using DMSO (1% final concentrations).
A Labcyte Echo 555 (Labcyte, Sunnyvale, Calif.) is used to dispense 200 nL from each well of the titration plate to the 384 well assay plate. A solution of enzyme (1/1600 dilution from aliquots; sufficient to produce 20% substrate conversion) and a separate solution of FAM-labeled cAMP PDE from Molecular Devices (product # R7506), at a final concentration of 50 nM are made in the assay buffer (10 mM Tris HCl, pH 7.2, 10 mM MgCl2, 0.05% NaN3 0.01% Tween-20, and 1 mM DTT). The enzyme and the substrate are then added to the assay plates in two consecutive additions of 10 μL, and then shaken to mix. The reaction is allowed to proceed at room temperature for 30 minutes. A binding solution is then made from the kit components, comprised of 80% Solution A, 20% Solution B and binding reagent at a volume of 1600 the total binding solution. […]

human PDE10A2, sequence (Q9Y233 267-1055): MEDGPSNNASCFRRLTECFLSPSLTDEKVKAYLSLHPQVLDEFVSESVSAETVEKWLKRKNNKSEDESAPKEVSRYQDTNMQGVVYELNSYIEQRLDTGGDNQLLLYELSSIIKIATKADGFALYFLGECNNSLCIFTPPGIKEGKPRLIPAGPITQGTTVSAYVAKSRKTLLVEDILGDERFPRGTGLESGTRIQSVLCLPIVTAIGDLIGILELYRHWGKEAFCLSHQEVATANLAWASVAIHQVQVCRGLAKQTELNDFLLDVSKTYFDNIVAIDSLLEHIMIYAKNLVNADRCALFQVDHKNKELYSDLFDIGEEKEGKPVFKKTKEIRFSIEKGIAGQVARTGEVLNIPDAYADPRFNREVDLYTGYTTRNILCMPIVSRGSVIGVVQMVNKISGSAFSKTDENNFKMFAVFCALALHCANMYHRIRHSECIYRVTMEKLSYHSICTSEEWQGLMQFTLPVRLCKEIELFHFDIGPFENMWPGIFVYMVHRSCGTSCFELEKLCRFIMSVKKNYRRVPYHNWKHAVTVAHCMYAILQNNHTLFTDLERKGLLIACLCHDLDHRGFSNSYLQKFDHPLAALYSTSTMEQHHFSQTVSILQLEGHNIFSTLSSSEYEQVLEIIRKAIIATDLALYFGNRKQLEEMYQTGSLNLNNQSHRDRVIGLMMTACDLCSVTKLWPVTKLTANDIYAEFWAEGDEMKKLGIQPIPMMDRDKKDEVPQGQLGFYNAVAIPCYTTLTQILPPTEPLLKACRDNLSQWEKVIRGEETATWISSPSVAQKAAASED

| Ki | Structure (SMILES) |
| --- | --- |
| 60.7 nM | Cc1nc([C@@H]2C[C@H]2c2cc3n(n2)CCCC3)cc(-n2nc(C)nc2C)n1 [Cpd 107, 2-{(1R,2R)-2-[6-(3,5-dimethyl-1H-1,2,4-triazol-1-yl)-2-methylpyrimidin-4-yl]cyclopropyl}-4,5,6,7-tetrahydropyrazolo[1,5-a]pyridine] |
| 0.11 nM | COc1ccc(Cc2nc(C)nn2-c2cc(/C=C/c3ccc(C)cn3)nc(C)n2)cc1OC [Cpd 20, (E)-4-(5-(3,4-dimethoxybenzyl)-3-methyl-1H-1,2,4-triazol-1-yl)-2-methyl-6-(2-(5-methylpyridin-2-yl)vinyl)pyrimidine] |
| 4.2 nM | Cc1nc([C@@H]2C[C@H]2c2nc3ccccc3n2C)cc(-n2nc(C)nc2C(C)(C)O)n1 [Cpd 98, 2-(3-methyl-1-{2-methyl-6-[(1R,2R)-2-(1-methyl-1H-benzimidazol-2-yl)cyclopropyl]pyrimidin-4-yl}-1H-1,2,4-triazol-5-yl)propan-2-ol] |
| 14.2 nM | Cc1cc(-n2nc(C)nc2C)cc([C@@H]2C[C@H]2c2nc3ccccc3n2C)n1 (relative stereo) [Cpd 108, trans-2-{2-[4-(3,5-dimethyl-1H-1,2,4-triazol-1-yl)-6-methylpyridin-2-yl]cyclopropyl}-1-methyl-1H-benzimidazole] |
| > 75 nM | Cc1nc([C@H]2C[C@@H]2c2nc3ccccc3n2C)cc(-n2nc(C)nc2O)n1 (stereo in doubt) [Cpd 78, 3-methyl-1-{2-methyl-6-[2-(1-methyl-1H-benzimidazol-2-yl)cyclopropyl]pyrimidin-4-yl}-1H-1,2,4-triazol-5-ol] |
| 9 nM | Cc1nc([C@@H]2C[C@H]2c2nc3ccccc3n2C)cc(-n2cnc(C)n2)n1 [Cpd 77, 1-methyl-2-{(1R,2R)-2-[2-methyl-6-(3-methyl-1H-1,2,4-triazol-1-yl)pyrimidin-4-yl]cyclopropyl}-1H-benzimidazole] |
| 13 nM | Cc1nc([C@@H]2C[C@H]2c2nc3ccccc3n2CC2CCCO2)cc(-n2nc(C)nc2C)n1 (stereo in doubt) [Cpd 75, 2-{2-[6-(3,5-dimethyl-1H-1,2,4-triazol-1-yl)-2-methylpyrimidin-4-yl]cyclopropyl}-1-(tetrahydrofuran-2-ylmethyl)-1H-benzimidazole] |
| 6 nM | Cc1nc([C@@H]2C[C@H]2c2nc3ccccc3n2CC2CCCCO2)cc(-n2nc(C)nc2C)n1 (stereo in doubt) [Cpd 70, 2-{2-[6-(3,5-dimethyl-1H-1,2,4-triazol-1-yl)-2-methylpyrimidin-4-yl]cyclopropyl}-1-(tetrahydro-2H-pyran-2-ylmethyl)-1H-benzimidazole] |
| 6.8 nM | Cc1nc(C2CC2c2nc3ccccc3[nH]2)cc(-n2nc(C)nc2C)n1 (centres unmarked) [Cpd 41, 2-(2-(6-(3,5-dimethyl-1H-1,2,4-triazol-1-yl)-2-methylpyrimidin-4-yl)cyclopropyl)-1H-benzo[d]imidazole] |
| 5.3 nM | COCc1ncnn1-c1cc([C@@H]2C[C@H]2c2nc3ccccc3n2C)nc(C)n1 [Cpd 94, 2-[(1R,2R)-2-{6-[5-(methoxymethyl)-1H-1,2,4-triazol-1-yl]-2-methylpyrimidin-4-yl}cyclopropyl]-1-methyl-1H-benzimidazole] |
| 0.002 nM | COc1ccc(Cc2nc(C)nn2-c2cc(/C=C/c3ccc4ccccc4n3)nc(C)n2)cc1OC [Cpd 18, (E)-2-(2-(6-(5-(3,4-dimethoxybenzyl)-3-methyl-1H-1,2,4-triazol-1-yl)-2-methylpyrimidin-4-yl)vinyl)quinoline] |
| 918 nM | Cc1nc(C2CC2c2nnc(C)o2)cc(-n2nc(C)nc2C)n1 (centres unmarked) [Cpd 39, 3,5-dimethyl-1-(2-methyl-6-(2-(5-methyl-1,3,4-oxadiazol-2-yl)cyclopropyl)pyrimidin-4-yl)-1H-1,2,4-triazol-4-ium] |
| 13.6 nM | Cc1nc([C@@H]2C[C@H]2c2nc3ccccc3n2C(C)C)cc(-n2nc(C)nc2C)n1 (stereo in doubt) [Cpd 71, 2-{2-[6-(3,5-dimethyl-1H-1,2,4-triazol-1-yl)-2-methylpyrimidin-4-yl]cyclopropyl}-1-(1-methylethyl)-1H-benzimidazole] |
| 12.8 nM | Cc1nc([C@H]2C[C@@H]2c2nc3ccccc3n2C)cc(-n2nc(C)nc2-c2cccnc2)n1 (stereo in doubt) [Cpd 81, 1-methyl-2-{2-[2-methyl-6-(3-methyl-5-pyridin-3-yl-1H-1,2,4-triazol-1-yl)pyrimidin-4-yl]cyclopropyl}-1H-benzimidazole] |
| 9.9 nM | Cc1nc([C@@H]2C[C@H]2c2nc3ccccc3n2Cc2cccnc2)cc(-n2nc(C)nc2C)n1 (stereo in doubt) [Cpd 74, 2-{2-[6-(3,5-dimethyl-1H-1,2,4-triazol-1-yl)-2-methylpyrimidin-4-yl]cyclopropyl}-1-(pyridin-3-ylmethyl)-1H-benzimidazole] |
| 2.1 nM | CO[C@@H](C)c1nc(C)nn1-c1cc([C@@H]2C[C@H]2c2nc3ccccc3n2C)nc(C)n1 [Cpd 95, 2-[(1R,2R)-2-(6-{5-[(1S)-1-methoxyethyl]-3-methyl-1H-1,2,4-triazol-1-yl}-2-methylpyrimidin-4-yl)cyclopropyl]-1-methyl-1H-benzimidazole] |
| 0.63 nM | COC[C@@H](C)Oc1nc([C@@H]2C[C@H]2c2nc3ccccc3n2C)cc(-n2nc(C)nc2C)n1 [Cpd 66, 2-[(1R,2R)-2-{6-(3,5-dimethyl-1H-1,2,4-triazol-1-yl)-2-[(1R)-2-methoxy-1-methylethoxy]pyrimidin-4-yl}cyclopropyl]-1-methyl-1H-benzimidazole] |
| 1.3 nM | COc1nc([C@H]2C[C@@H]2c2nc3ccccc3n2C)cc(-n2nc(C)nc2C)n1 (relative stereo) [Cpd 111, trans-2-{2-[6-(3,5-dimethyl-1H-1,2,4-triazol-1-yl)-2-methoxypyrimidin-4-yl]cyclopropyl}-1-methyl-1H-benzimidazole] |
| 3.1 nM | Cc1nc(C)n(-c2cc([C@H]3C[C@@H]3c3nc4ccccc4n3C)nc(N3CCN(C)CC3)n2)n1 (relative stereo) [Cpd 121, trans-2-{2-[6-(3,5-dimethyl-1H-1,2,4-triazol-1-yl)-2-(4-methylpiperazin-1-yl)pyrimidin-4-yl]cyclopropyl}-1-methyl-1H-benzimidazole] |
| 2 nM | Cc1nc([C@@H]2C[C@H]2c2nc3ccccc3n2C)cc(-n2nc(Br)nc2C)n1 [Cpd 88, 2-{(1R,2R)-2-[6-(3-bromo-5-methyl-1H-1,2,4-triazol-1-yl)-2-methylpyrimidin-4-yl]cyclopropyl}-1-methyl-1H-benzimidazole] |
| 1.2 nM | CCc1nc([C@H]2C[C@@H]2c2nc3ccccc3n2C)cc(-n2nc(C)nc2C)n1 (relative stereo) [Cpd 119, trans-2-{2-[6-(3,5-dimethyl-1H-1,2,4-triazol-1-yl)-2-ethylpyrimidin-4-yl]cyclopropyl}-1-methyl-1H-benzimidazole] |
| 1.4 nM | Cc1nc([C@@H]2C[C@H]2c2nc3ccccc3n2C)cc(-n2nc(C)nc2C)n1 [Cpd 37, 2-((1R,2R)-2-(6-(3,5-dimethyl-1H-1,2,4-triazol-1-yl)-2-methylpyrimidin-4-yl)cyclopropyl)-1-methyl-1H-benzo[d]imidazole] |
| 1.4 nM | Cc1nc(C)n(-c2cc([C@H]3C[C@@H]3c3nc4ccccc4n3C)nc(C(F)(F)F)n2)n1 (relative stereo) [Cpd 109, trans-2-{2-[6-(3,5-dimethyl-1H-1,2,4-triazol-1-yl)-2-(trifluoromethyl)pyrimidin-4-yl]cyclopropyl}-1-methyl-1H-benzimidazole] |
